This is an account of results in patent publication US20050203065A1, “Method of treating ischemia reperfusion injury using adenosine receptor antagonists” (priority 2002, published 2005).

Assay [1] has as its target T1, recombinant canine A2a adenosine receptors (Canis lupus familiaris, UniProt P11617).
T1 construct: expressed in transfected cells
Description: Radioligand competition binding, canine A2a receptor (3H-ZM 241385), transfected HEK 293 membranes. Conditions: canine; mean ± SEM, n = 3; 3H-ZM 241385; read-out: Ki, A2a. How it is done:
Membranes (40-70 μg membrane protein), radioligands, and varying concentrations of competing ligands were incubated in triplicate in 0.1 ml buffer HE plus 2 units/mL adenosine deaminase for 2.5 hours at 21° C. […] Nonspecific binding was measured in the presence of 10 μM 5′N ethylcarboxamidoadenosine (NECA, from RBI-Sigma, Natick, Mass.) for A1 and A2b receptors, or 10 μM xanthine amino congener (XAC, from RBI-Sigma, Natick, Mass.) for A2a receptors. Binding assays were terminated by filtration over Whatman GF/C glass fiber filters using a BRANDEL cell harvester (Gaithersburg, Md.).

The target of assay [2] is T2, recombinant rat A2b adenosine receptors (Rattus norvegicus, UniProt P29276).
T2 construct: expressed in transfected cells; host or cells: HEK-293
T2 sequence (P29276 1-332): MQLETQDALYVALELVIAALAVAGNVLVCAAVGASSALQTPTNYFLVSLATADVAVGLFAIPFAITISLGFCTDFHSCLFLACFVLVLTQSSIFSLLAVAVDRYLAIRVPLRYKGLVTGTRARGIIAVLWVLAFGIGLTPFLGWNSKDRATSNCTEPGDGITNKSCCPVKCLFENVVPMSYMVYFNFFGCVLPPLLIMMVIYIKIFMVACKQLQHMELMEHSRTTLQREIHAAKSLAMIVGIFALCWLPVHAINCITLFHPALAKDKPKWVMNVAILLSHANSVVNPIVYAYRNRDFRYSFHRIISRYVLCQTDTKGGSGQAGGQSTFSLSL
Kind of assay: FLIPR calcium functional assay, rat A2b receptor in HEK-293 cells (NECA). It is filed as cell-based. The following applies: HEK293 cells. How it is done: FIG. 10 depicts FLIPR assay of BG9928 with recombinant […] A2b adenosine receptors stably expressed in HEK-293 cells. FLIPR assays measuring the fraction of control response observed with 10, 100, and 300 nM BG9928 in HEK-293 cells expressing rat A2b adenosine receptors in the presence of increasing concentrations of the agonist (NECA) (top graph). The bottom graph is a Schild analysis of the data presented in the top graph.
Cells were seeded into 96-well tissue culture plates with black walls and clear bottoms, and cultured to an […] confluent monolayer. Without removing the media, an equal volume of dye (from calcium assay kit purchased from Molecular Devices) was added. Cell plates were incubated for 1 hour at 37° C. and were then transferred to the-FLIPR unit (Molecular Devices). […]
The FLIPR integrates an argon laser excitation source, a 96-well pipettor, and a detection system utilizing a CCD (Charged Coupled Device) imaging camera. Fluorescence emissions from the 96 wells were monitored simultaneously at excitation and emission wavelength of 488 and 520 nm, respectively. Fluorescence data were collected at 0.1-sec intervals before and after simultaneous rapid addition of compounds to the 96-well plate. Results were read as relative fluorescence units (RFU). […]

Assay [3] has as its target T3, human A2B adenosine receptors (Homo sapiens, UniProt P29275).
T3 sequence (P29275 1-332): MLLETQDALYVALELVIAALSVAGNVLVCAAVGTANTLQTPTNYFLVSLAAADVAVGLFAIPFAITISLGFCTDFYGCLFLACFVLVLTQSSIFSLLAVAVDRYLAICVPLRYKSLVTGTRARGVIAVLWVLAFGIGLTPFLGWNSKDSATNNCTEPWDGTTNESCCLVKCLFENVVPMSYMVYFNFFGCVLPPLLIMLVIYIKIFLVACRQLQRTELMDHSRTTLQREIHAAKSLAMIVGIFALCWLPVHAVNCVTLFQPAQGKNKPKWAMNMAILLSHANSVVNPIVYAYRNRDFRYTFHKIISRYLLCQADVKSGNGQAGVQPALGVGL
Kind of assay: FLIPR calcium functional assay, human A2b receptor in HEK-293 cells (5 μM NECA). The format is cell-based. Further details: expressed in transfected cells; host or cells: HEK-293. Conditions: HEK293 cells, null method.
Description: Cells were seeded into 96-well tissue culture plates with black walls and clear bottoms, and cultured to an 80-0.90% confluent monolayer. Without removing the media, an equal volume of dye (from calcium assay kit purchased from Molecular Devices) was added. Cell plates were incubated for 1 hour at 37° C. and were then transferred to the-FLIPR unit (Molecular Devices).
For assay of recombinant human and rat A2b adenosine receptors, HEK-293 cells were incubated with increasing doses of agonist (5′N-ethylcarboxamidoadenosine, NECA) to determine the concentration of agonst that produced 50% of a maximum response.
The FLIPR integrates an argon laser excitation source, a 96-well pipettor, and a detection system utilizing a CCD (Charged Coupled Device) imaging camera. […] Fluorescence data were collected at 0.1-sec intervals before and after simultaneous rapid addition of compounds to the 96-well plate. Results were read as relative fluorescence units (RFU).
In FLIPR functional assays, agonist concentration-response curves were fitted to a logistic equation by use of the nonlinear regression program in Prizm GraphPad. […] A Schild analysis was performed to estimate the potency of the compounds as antagonists (pA2). […]

The target in assay [4] is T3, human A2B adenosine receptors. Description: Radioligand competitive binding, human A2b receptor. Conditions: HEK 293 membranes. Further details: expressed in transfected cells; host or cells: HEK-293. How it is done: Binding assays were terminated by filtration.
Membranes (40-70 μg membrane protein), radioligands, and varying concentrations of competing ligands were incubated in triplicate in 0.1 ml buffer HE plus 2 units/mL adenosine deaminase for 2.5 hours at 21° C. The radioligands used for competitive binding assays were: [^3H]-8-cyclopentyl-1,3-dipropyxanthine ([^3H]-DPCPX) (NEN, Boston, Mass.) for A1 and A2b adenosine receptors, [^3H]-4-(2-[7-amino-2-(furyl)(1,2,4)triazole(2,3-a)(1,3,5)triazin-5-ylaminoethyly)phenol ([^3H] ZM241385) for A2a adenosine receptors (Tocris, Bristol, UK), and [^125Iodine]-labeled N6-(4-aminobenzyl)-9-(5-(methylcarbonyl)-β-D-ribofuranosyl) adenine ([^125I]-AB-MECA) or [^3H]-R-N^6-phenylisopropyladenosine (H^3R]-R-PIA) for A3 adenosine receptors (both from NEN, Boston, Mass.). Nonspecific binding was measured in the presence of 10 μM 5′N ethylcarboxamidoadenosine (NECA, from RBI-Sigma, Natick, Mass.) for A1 and A2b receptors, or 10 μM xanthine amino congener (XAC, from RBI-Sigma, Natick, Mass.) for A2a receptors. Binding assays were terminated by filtration over Whatman GF/C glass fiber filters using a BRANDEL cell harvester (Gaithersburg, Md.).

T1 sequence (P11617 whole entry): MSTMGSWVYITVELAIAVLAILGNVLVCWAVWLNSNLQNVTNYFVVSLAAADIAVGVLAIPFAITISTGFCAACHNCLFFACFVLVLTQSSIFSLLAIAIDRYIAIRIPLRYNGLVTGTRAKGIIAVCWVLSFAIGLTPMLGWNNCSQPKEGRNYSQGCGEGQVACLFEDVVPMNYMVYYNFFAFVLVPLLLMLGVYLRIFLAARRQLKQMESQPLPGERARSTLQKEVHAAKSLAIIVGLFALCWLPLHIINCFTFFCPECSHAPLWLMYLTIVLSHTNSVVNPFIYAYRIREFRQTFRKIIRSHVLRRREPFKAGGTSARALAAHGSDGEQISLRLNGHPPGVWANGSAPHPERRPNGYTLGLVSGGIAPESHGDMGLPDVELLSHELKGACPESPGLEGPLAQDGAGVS

As to `CCCn1c(=O)c2[nH]c(C34CCC(CCC(=O)O)(CC3)CC4)nc2n(CCC)c1=O` [BG 9928, 3-[4-(2,6-dioxo-1,3-dipropyl-2,3,6,7-tetrahydro-1H-purin-8-yl)-bicyclo[2.2.2]oct-1-yl]-propionic acid], the figures for the Ki in assay [1] and in assay [4] were 4310 nM and 88.5 ± 21 nM, respectively. In addition, the pA2 in assay [2] (rat A2b, Schild analysis) is 6.59. Besides, the Kb in assay [2] (rat, null methodology) came to 257 nM; in assay [3], 3.36 nM.

A word on the Ki: it is the equilibrium dissociation constant of an inhibitor or competing ligand from its target. By pA2 is commonly meant a measure of antagonist potency on a negative log scale.
